Consider 5 compounds from US20030134353A1, “Recombinant dimorphic fungal cell” (Bioteknologisk Institut, priority 2001, published 2003).

One experiment relates to M. circinelloides. The settings on record: van Heeswijck et al., 1988; acid pH (3.2 or 4.5); cited from earlier work.
The subject of another experiment is pkaR expression. The experiment in a line: Northern blot analysis of pkaR expression during aerobic growth after dbcAMP addition. It is filed as cell-based, M. circinelloides. The note with it: for Total Counts (pkaR mRNA, background subtracted): aerobic growth. On the procedure:
M. circinelloides syn. racemosus R7B (ATCC 90680), a leucine auxotrophic strain of ATCC1216b, was used as a recipient for transformation experiments and for expression studies. Cultures were grown at 28° C. in either YPG (Bartnicki-Garcia and Nickerson, 1962), YNB (Lasker and Borgia, 1980), Vogel's medium supplemented with 1.5 g glutamic acid per litre (Hoekstra, 1996) or SIV medium with 1.5 g glutamic acid per litre in place of L-aspargine (Eslava and Alvarez, 1996). Vogel's and SIV media were supplemented with 2 g casamino acids (Difco, Detroit, Mich., USA) per litre. All media were supplemented with 1 mg/L niacin amide and 1 mg/L thiamine chloride. When appropriate, 20 mg/L leucine was added to allow for the growth of strain R7B. For the analysis of pkaR expression, 5 mM dbcAMP (Sigma) was added to aerobic growing cultures during exponential growth. The BBL GasPak system (Becton Dickinson, Sparks, Md., USA) was used for anaerobic incubation of strains on solid medium. E. coli DH5α was used for DNA manipulations.
RNA isolation was carried out using a FastRNA kit (BIO101 Inc., CA, USA) and extraction with acid Phenol:chloroform (Sigma). For Northern blot analysis, total RNA was loaded onto formaldehyde containing agarose gel, subjected to electrophoresis, transferred to GeneScreen membrane (Du Pont) and hybridised as described (Arnau et al., 1996). Expression levels were meassured using a Cyclone Storage Phosphor System (Packard) and the OptiQuant image analysis software. A linear dynamic range of 5 orders of magnitude with only a 5% standard deviation is possible with the above apparatus. Dilution series of the RNA preparations (typically 20, 10 and 5 μg total RNA per sample) were used to estimate induction levels. Primer extension was carried out using a radioactively end-labelled primer; complementary to position 98-78 downstream of the pkaR ATG start codon. A sequence ladder was obtained using the same primer and pEUKA4-pkaR DNA as template using the Thermo Sequenase Radiolabeled Terminator Cycle Sequencing Kit (USB-Amersham). Probe labelling was performed using Ready-To-Go DNA Labelling Beads (Amersham Pharmacia Biotech). Unincorporated nucleotides were removed using a NICK column (Pharmacia).
In a complementary study, the expression of pkaR was followed during aerobic (filamentous) growth before and after the addition of dbcAMP. This cAMP analogue is membrane permeable and its addition results in PKA activation.

For experiment [1], the system named is Mucor circinelloides strain R7B. The experiment in a line: Screening of antibiotic sensitivity on YNB agar at pH 6.0. It is filed as cell-based. The note with it: YNB agar pH 6.0, 4 days at 28° C. On the procedure:
Spores of Mucor circinelloides strain R7B were plated on to YNB agar pH 6.0 supplemented with leucine (upper left plate in all panels) or the same medium supplemented with 50, 100 or 250 μg/ml of the antibiotic (geneticin, kanamycin, hygromycin B or neomycin) as indicated in each panel. After 4 days at 28° C., plates were examined and photographed.
However, the conditions used for the above screening—especially the acid pH used (3.2 or 4.5)—may result in the inactivation of the antibiotic. Therefore, we performed an initial screening of antibiotic sensitivity using pH 6.0. Under these conditions, M. circinelloides is sensitive to all four antibiotic tested.

In the case of `CCCCNC(=O)n1c(NC(=O)OC)nc2ccccc21` [benomyl], the “Sensitivity of M. circinelloides to antibiotic as reported” value (“Sensitivity of M. circinelloides” for short) with M. circinelloides is on record as “insensitive”.
Regarding `CCCC(=O)Nc1ncnc2c1ncn2[C@@H]1O[C@@H]2COP(=O)(O)O[C@H]2[C@H]1OC(=O)CCC` [dbcAMP], the “Total Counts (pkaR mRNA, background subtracted)” value with pkaR expression (15 min after addition of 5 mM dbcAMP) was determined as 951; in the experiment with pkaR expression (30 min after addition of 5 mM dbcAMP) it was 1728; in the experiment with pkaR expression (60 min after addition of 5 mM dbcAMP), 2235; with pkaR expression (120 min after addition of 5 mM dbcAMP), 2392; in the experiment on pkaR expression (180 min after addition of 5 mM dbcAMP), 2966. Moreover, the “Induction of pkaR expression compared to the level before dbcAMP addition” value with pkaR expression (after three hours) is listed as “sevenfold”.
Consider `CN[C@H]1C[C@@H](N)[C@H](O)[C@@H](O[C@@H]2O[C@H](CO)[C@H](O)[C@@H]3OC4(O[C@H]23)O[C@H]([C@@H](N)CO)[C@H](O)[C@H](O)[C@H]4O)[C@@H]1O` (some centres unmarked) [hygromycin B], for which the “Growth of M. circinelloides on antibiotic-supplemented plates” value in experiment [1] (50 μg/ml antibiotic) is “tiny colonies”; in experiment [1] (100 μg/ml antibiotic) it was “no growth”.
Take `CC[C@H]1/C=C/C=C/C[C@@H](C)[C@H](O)[C@@](C)(O)C(=O)[C@@H](C)[C@H](O)[C@@H](C)C(=O)[C@@H](C)[C@H](O)[C@@H](C)/C=C/C(=O)O[C@@H]2[C@H](C)[C@H](CC1)O[C@]1(CC[C@H](C)[C@H](C[C@@H](C)O)O1)[C@H]2C` [oligomycin]: the “Sensitivity of M. circinelloides” value in the experiment on M. circinelloides is on record as “insensitive”.
Take neomycin: in the experiment with M. circinelloides, the “Sensitivity of M. circinelloides” value is reported as “insensitive”.
